In PMC9249674, “A small-molecule Skp1 inhibitor elicits cell death by p53-dependent mechanism” (iScience, 2022):

Experiments:
[1] = system: A549 cells; test: Cell viability assay (Cell-Titer GLO); type: cell-based, human; details: Homo sapiens; A549; Lung cancer; 48 h; read-out: Anti-proliferative EC50
Protocol: The media was according to culture conditions of each individual cell line (mentioned above). After 12 hrs, compounds were added in a total volume of 5 μL of media (two-fold diluted) to each well with final concentrations from 5 nM to 30 μM. The measurements were conducted 48 hrs after seeding of the cells. Then, 25 μL of Cell-Titer GLO reagent (Promega) was added, and luminescence was measured on an EnSpire multimode plate reader (PerkinElmer), according to the manufacturer’s instructions. The estimated in vitro half-maximal inhibitory concentration (EC50) values were calculated using GraphPad Prism® v6.0 (San Diego, CA) software. The cell viability for A549 cells was also performed for 72- and 96-hrs by using the same experimental conditions as described above.

[2] = molecular target: T1, Skp1-ΔSkp2^F−box-peptide interaction (Homo sapiens, UniProt P63208); test: FP-based in vitro competition assay; type: binding; details: 200 μM compound, 25 μM Skp1^WT, 500 nM tracer
T1 construct: recombinantly purify intact (Skp1^WT) and truncate (ΔSkp1^1−140; lacking H8-helix) forms of Skp1; His6; made in house; host or cells: Escherichia coli BL21 (DE3)
Protocol: FP measurements were performed using an EnVision multilabel Reader (Perkin Elmer). […] Lyophilized F-box-FAM peptide was initially dissolved in a Tris buffer (20 mM Tris-HCl pH 9.0, 150 mM NaCl, 2 mM DTT), and then a stock solution of 100 μM was prepared by subsequent dilutions in a FP buffer (20 mM Tris-HCl pH 8.0, 150 mM NaCl, 2 mM DTT, 5% (v/v) glycerol, 0.001% (v/v) Triton X-100). Specific controls groups included free F-box-FAM (tracer), bound F-box-FAM in the presence of protein (Skp1^WT or ΔSkp1^1−140), and FP buffer for every measurement, allowing accurate estimation of specific polarization.
The selected subset of compounds were initially assayed at final concentration of 200 μM. The compounds were incubated at room temperature with Skp1^WT for 1 hr, followed by the addition of the tracer. […] After incubation for another 2 hrs, FP signals was measured on an EnVision multilabel Reader. The FP response was measured in quadruplicates with controls including free F-box-FAM (tracer), bound Skp1^WT-F-box-FAM, and FP buffer. The resultant FP values were plotted as bar graphs using ORIGIN Lab software.
For gradient FP assay, protein samples were mixed with an appropriate concentrations of ligand over the range of several folds. […] The IC50 value of the compound in the gradient-concentration assay was determined with nonlinear regression and fitting using the following equation in GraphPad Prism® v6.0 (San Diego, CA). Y = Bottom + (Top – Bottom)/(1 + 10^X−LogIC50). […] In short, the relationship between the IC50 of the inhibitor and the Ki of the inhibitor depends on the KD of the fluorescent ligand and the concentration of the receptor.

T1 sequence (P63208 whole entry, stated change not applied, the tested form may be a part): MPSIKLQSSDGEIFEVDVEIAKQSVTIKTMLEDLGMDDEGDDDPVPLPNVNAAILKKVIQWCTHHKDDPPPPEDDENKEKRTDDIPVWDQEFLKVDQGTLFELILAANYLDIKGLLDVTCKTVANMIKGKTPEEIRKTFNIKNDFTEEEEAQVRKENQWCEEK

Row | inhibition at 200 µM [2] [%] | SMILES | EC50 [1] [µM]
1 |  | C/C=C(/C)C(=O)O[C@H]1[C@@H]2[C@H](C)C(=O)O[C@@H]2C[C@@H](C)[C@@H]2C=CC(=O)[C@]21C [6-OAP, Brevilin A, reference compound] | 14.1 ± 2.25
2 | > 50 | COc1ccc(-c2cc(-c3cccc(N)c3)ccn2)cc1 [JH-3, 3-(2-(4-Methoxyphenyl)pyridin-4-yl)aniline] | 
